A short description of series [1]: Intrinsic clearance (CLint) in cynomolgus monkey liver microsomes. Format: in vitro ADME. The conditions noted are these: for microsomal CLint at 1 μM / half-life at 1 μM: monkey, liver microsomes, pH 7.4, monkey liver microsomes; for half-life at 1 μM: read-out: T½; for Rate of metabolite / intrinsic clearance in comparison to undeuterated form (95A) / rate of metabolite formation in comparison to undeuterated form (95A): monkey liver microsomes. The method, then:
Intrinsic Clearance (CLint) in Cynomolgus Monkey Liver Microsomes
(§1) Incubations (in duplicate) contained either 95A or 96, or both 95A and 96 at final concentrations of 1 μM, pooled cynomolgus monkey liver microsomes (Xenotech, LLC, Lenexa, Kans., 0.25 μM CYP protein equivalent to 0.21 mg/mL protein concentration), NADPH (1.3 mM), magnesium chloride (3.3 mM) and potassium phosphate buffer (100 mM, pH 7.4). The final reaction volume (500 μL) contained 0.003% DMSO, 0.5% acetonitrile. The incubations were conducted at 37° C. and aliquots (50 μL) were removed at 0, 5, 10, 15, 20, 30, 45 and 60 minutes and quenched by addition to cold acetonitrile containing mass spectrometry (MS) internal standard (200 μL). Quenched incubations were vortexed for 1 minute followed by centrifugation at 3000 rpm for 5 minutes at room temperature (Allegra X-12R, Beckman Coulter, Fullerton, Calif.). The supernatant (150 μL) was then removed and added to a 96-deep well injection plate containing 150 μL of water with 0.1% formic acid (v/v). The plates were capped and vortexed for 1 minute and subsequently analyzed using LC-MS/MS as described below. Control incubations were prepared similar without adding the NADPH cofactor to monitor for any non-CYP/FMO metabolism. Discrete standard curves (0.5-2000 nM) were prepared, processed, and analyzed as described above.
(§2) Disappearance of substrates 95A and 96 and formation of metabolites 95 or 96B were determined using an LC-MS/MS system which is comprised of an AB Sciex 6500 triple quadrupole mass spectrometer equipped with an electrospray source (AB Sciex, Framingham, Mass.) and Agilent Technologies Infinity 1290 (Santa Clara, Calif.). A binary gradient was employed with a flow rate of 0.500 mL/min, using 0.1% formic acid in water as the aqueous mobile phase (solvent A) and 0.1% formic acid in acetonitrile (solvent B) as the organic phase. The LC gradient profile begins at 5% solvent B which was ramped to 98% B over 2 minutes and then held for 0.20 minutes and returned to initial conditions (5% B) over 0.5 minutes, for a total run time of 3.00 minutes. The analytical column used was a Phenomenex Kinetex 2.6 μm, 2.1×50 mm (Phenomenex, Torrance, Calif.), with an injection volume of 10 μL. The mass spectrometer was run under positive mode with the source temperature set to 500° C., ionization voltage set to 4.5 kV. The following MS/MS transitions were utilized: for substrate 95A (408→310), substrate 96 (411→313), metabolite 95 (424→326), and metabolite 96B (426→328). Analytes were quantified using Analyst software, version 1.6.2 or earlier (AB Sciex, Framingham, Mass.).
For orientation: Liver microsomes are vesicles of endoplasmic reticulum, rich in cytochrome P450 enzymes.

Series [2] in a line: Intrinsic clearance (CLint) in human liver microsomes. Format: in vitro ADME. The conditions noted are these: for microsomal CLint at 1 μM / half-life at 1 μM: human, liver microsomes, pH 7.4, human liver microsomes; for half-life at 1 μM: read-out: T½; for Rate of metabolite / intrinsic clearance in comparison to undeuterated form (95A) / rate of metabolite formation in comparison to undeuterated form (95A): human liver microsomes. The protocol:
Intrinsic Clearance (CLint) in Human Liver Microsomes
as §1, with “The” for “Incubations (in duplicate) contained either 95A or 96, or both 95A and 96 at final concentrations of 1 μM, pooled cynomolgus monkey liver microsomes (Xenotech, LLC, Lenexa, Kans., 0.25 μM CYP protein equivalent to 0.21 mg/mL protein concentration), NADPH (1.3 mM), magnesium chloride (3.3 mM) and potassium phosphate buffer (100 mM, pH 7.4). The”, “vortex” for “vortexed”, “(v/v), the” for “(v/v). The”
as §2

Series [3] can be described thus: Human liver microsomes enzyme kinetics (metabolite formation). Format: in vitro ADME. The protocol:
Human Liver Microsomes Enzyme Kinetics
Incubations (in triplicate) contained 95A or 96 (1-1000 μM, final concentrations), pooled human liver microsomes (BD Biosciences, Bedford, Mass., 0.25 protein concentration, NADPH (1.3 mM), magnesium chrolide (5 mM) and potassium phosphate buffer (100 mM, pH 7.4). The final reaction volume (100 μL) contained 1 acetonitrile. The incubations were conducted at 37° C. At time points of 15 minutes for 95A, or 30 min for 96, 50 μL of incubate was quenched by the addition of 200 μL of cold acetonitrile containing 0.1% formic acid (v/v) and mass spectrometry (MS) internal standard. Quenched samples were vortexed for 1 minute followed by centrifugation at 3000 rpm for 5 minutes at room temperature (Allegra X-12R, Beckman Coulter, Fullerton, Calif.). The supernatant (150 μL) was placed into a clean injection sample block and dried down under nitrogen gas, then reconstituted with 150 μL of water containing 0.1% formic acid (v/v). The plates were capped and vortexed for 1 minute and subsequently analyzed using LC-MS/MS as described below. Formation of metabolites 95 (from substrate 95A) and 96B (from substrate 96) was quantitated using a standard curve (0.5-5000 nM) generated using a synthetic standard of substrate 95. Standard curve samples were prepared, processed, and analyzed as described above.
as §2

The next series concerns the target mutant G2019S LRRK2 (Homo sapiens (Human), UniProt Q5S007, G2019S). Description: LRRK2 kinase assay (LanthaScreen), G2019S mutant. It counts as biochemical. The conditions noted are these: G2019S mutant LRRK2; LanthaScreen, LRRKtide substrate; read-out: LRRK2, G2019S IC50. In outline: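 GST-tagged truncated enzyme (2 μg/mL) phosphorylates 100 nM fluorescein-LRRKtide with 1 mM ATP in HEPES pH 7.5, 3 mM MgCl2, DTT, Brij35; 30 min, room temperature, compound dose response top 3 μM. Stopped with EDTA; phospho-ERM detected by terbium anti-phospho-ERM TR-FRET; identical conditions for both enzymes.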
On the technique in general: TR-FRET usually uses a lanthanide donor and a delayed reading to cut background.

The mark [4] stands for this setting: combined substrates 95A and 96 - competition.
[5] abbreviates: formation of metabolite 95 (from 95A) or 96B (from 96), human liver microsomes.
Where [6] appears, read: combined substrates (competition).
[7] abbreviates: individual substrates, metabolite 95 from 95A, 96B from 96.

SMILES strings stand for the structures.

mutant G2019S LRRK2, sequence (Q5S007 whole entry G2019S, the tested form may be a part): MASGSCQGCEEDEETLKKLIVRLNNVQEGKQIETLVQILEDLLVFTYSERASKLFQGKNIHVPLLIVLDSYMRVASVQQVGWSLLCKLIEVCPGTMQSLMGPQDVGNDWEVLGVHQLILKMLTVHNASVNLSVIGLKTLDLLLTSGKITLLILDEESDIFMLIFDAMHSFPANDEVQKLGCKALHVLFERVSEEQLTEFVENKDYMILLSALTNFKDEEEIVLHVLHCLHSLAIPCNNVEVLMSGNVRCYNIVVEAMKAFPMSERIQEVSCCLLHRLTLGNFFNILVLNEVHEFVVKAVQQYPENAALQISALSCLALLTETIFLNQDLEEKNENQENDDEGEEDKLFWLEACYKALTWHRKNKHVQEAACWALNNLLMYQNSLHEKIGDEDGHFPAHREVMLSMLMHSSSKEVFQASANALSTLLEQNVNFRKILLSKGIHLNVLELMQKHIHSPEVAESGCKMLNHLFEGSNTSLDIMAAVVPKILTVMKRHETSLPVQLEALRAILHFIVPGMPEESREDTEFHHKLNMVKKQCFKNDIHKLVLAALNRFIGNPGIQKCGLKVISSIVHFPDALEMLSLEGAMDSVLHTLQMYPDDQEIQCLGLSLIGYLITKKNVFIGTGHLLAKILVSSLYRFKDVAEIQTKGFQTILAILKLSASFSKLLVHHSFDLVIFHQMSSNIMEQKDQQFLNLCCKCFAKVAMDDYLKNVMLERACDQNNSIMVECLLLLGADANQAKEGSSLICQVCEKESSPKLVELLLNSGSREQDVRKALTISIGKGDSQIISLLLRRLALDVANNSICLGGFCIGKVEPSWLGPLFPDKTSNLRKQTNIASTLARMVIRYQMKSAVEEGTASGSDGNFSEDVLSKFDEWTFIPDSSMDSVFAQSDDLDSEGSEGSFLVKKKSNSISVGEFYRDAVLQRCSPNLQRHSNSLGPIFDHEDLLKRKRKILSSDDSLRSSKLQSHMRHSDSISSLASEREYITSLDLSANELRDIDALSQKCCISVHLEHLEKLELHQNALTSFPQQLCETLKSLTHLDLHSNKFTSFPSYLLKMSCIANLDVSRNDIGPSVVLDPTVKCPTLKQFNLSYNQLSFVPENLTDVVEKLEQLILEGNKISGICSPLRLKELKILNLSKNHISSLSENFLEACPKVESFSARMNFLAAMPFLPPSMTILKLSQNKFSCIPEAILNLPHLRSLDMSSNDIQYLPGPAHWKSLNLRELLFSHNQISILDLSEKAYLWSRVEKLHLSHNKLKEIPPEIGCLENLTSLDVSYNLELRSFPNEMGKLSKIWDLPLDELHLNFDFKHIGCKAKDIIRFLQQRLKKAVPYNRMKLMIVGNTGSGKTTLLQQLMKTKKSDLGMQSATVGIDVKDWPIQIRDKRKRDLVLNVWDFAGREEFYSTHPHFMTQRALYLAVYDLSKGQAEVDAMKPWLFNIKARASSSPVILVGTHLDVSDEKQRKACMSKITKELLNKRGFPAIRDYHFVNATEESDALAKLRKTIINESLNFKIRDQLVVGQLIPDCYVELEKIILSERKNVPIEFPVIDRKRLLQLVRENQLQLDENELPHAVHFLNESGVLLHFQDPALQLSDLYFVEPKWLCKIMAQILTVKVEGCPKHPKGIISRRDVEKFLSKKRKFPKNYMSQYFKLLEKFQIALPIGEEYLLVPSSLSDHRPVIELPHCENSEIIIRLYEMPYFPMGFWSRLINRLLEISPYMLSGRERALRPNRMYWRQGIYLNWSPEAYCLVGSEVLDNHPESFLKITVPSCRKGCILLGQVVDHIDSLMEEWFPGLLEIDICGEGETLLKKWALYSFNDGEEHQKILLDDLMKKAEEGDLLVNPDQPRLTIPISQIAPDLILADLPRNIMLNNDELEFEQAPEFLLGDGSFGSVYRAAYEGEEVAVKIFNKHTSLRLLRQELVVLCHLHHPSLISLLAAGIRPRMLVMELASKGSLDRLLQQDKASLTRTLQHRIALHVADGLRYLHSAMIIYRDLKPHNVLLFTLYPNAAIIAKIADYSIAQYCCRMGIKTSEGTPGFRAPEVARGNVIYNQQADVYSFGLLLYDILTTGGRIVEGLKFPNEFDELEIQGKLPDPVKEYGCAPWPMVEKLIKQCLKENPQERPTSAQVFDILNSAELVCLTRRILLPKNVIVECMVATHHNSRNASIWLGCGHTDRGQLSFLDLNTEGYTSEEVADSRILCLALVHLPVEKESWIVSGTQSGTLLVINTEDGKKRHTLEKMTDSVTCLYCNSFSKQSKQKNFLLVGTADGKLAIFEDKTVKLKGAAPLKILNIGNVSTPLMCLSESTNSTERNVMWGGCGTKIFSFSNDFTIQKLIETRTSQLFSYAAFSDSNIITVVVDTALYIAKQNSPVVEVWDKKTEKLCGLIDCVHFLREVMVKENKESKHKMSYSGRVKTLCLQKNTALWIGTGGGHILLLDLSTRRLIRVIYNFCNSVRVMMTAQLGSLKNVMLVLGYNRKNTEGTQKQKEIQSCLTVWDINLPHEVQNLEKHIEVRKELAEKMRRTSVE

As to `Cc1cnc(Cc2nc3cnc4ccc(Cl)cc4c3n2[C@@H]2CCO[C@H](C)C2)cn1` [Example 95A, 8-chloro-2-[(5-methylpyrazin-2-yl)methyl]-1-[(2R,4R)-2-methyltetrahydro-2H-pyran-4-yl]-1H-imidazo[4,5-c]quinoline], the microsomal CLint at 1 μM in series [1] (setting [4]) is 193 µL/min/mg; in series [1] (individual substrates, 1 μM) it was 215 µL/min/mg; in series [2] (setting [4]) it was 14 µL/min/mg; in series [2] (individual substrates, 1 μM), 16 µL/min/mg. For the same compound, the half-life at 1 μM came to 17.2 min in series [1] (setting [4]); 15.3 min in series [1] (individual substrates, 1 μM); 65.9 min in series [2] (setting [4]); 54.4 min in series [2] (individual substrates, 1 μM). Further, the Km in series [3] (setting [5]) was 15.2 µM. Also, the Vmax in series [3] (setting [5]) is listed as 0.229 nmol/min/mg. Also, in series [3] (pH 7.4, formation of metabolite 95 (from 95A) or 96B (from 96), human liver microsomes), the microsomal CLint stood at 15.1 µL/min/mg. For the same compound, at mutant G2019S LRRK2, the IC50 was 6.06 nM.

For `[2H]C([2H])([2H])c1cnc(Cc2nc3cnc4ccc(Cl)cc4c3n2[C@@H]2CCO[C@H](C)C2)cn1` [Example 96, 8-chloro-2-{[5-(^2H3)methylpyrazin-2-yl]methyl}-1-[(2R,4R)-2-methyltetrahydro-2H-pyran-4-yl]-1H-imidazo[4,5-c]quinoline], the Rate of metabolite in series [1] (setting [4]) is listed as 25.19 nmol/min/mg; in series [1] (setting [7]), 22.83 nmol/min/mg; in series [2] (setting [4]), 1.65 nmol/min/mg; in series [2] (setting [7]) it was 1.10 nmol/min/mg. For the same compound, the “intrinsic clearance in comparison to undeuterated form (95A)” value in series [1] (setting [6]), in series [1] (individual substrates), in series [2] (setting [6]), in series [2] (individual substrates) and in series [3] (human liver microsomes enzyme kinetics) was “decreased intrinsic clearance” in each case. Moreover, the “rate of metabolite formation in comparison to undeuterated form (95A)” value is listed as “lower rate of metabolite formation” in series [1] (setting [6]), “lower rate of metabolite (96B) formation” in series [1] (individual substrates), “lower rate of metabolite formation” in series [2] (setting [6]) and “lower rate of metabolite (96B) formation” in series [2] (individual substrates). In addition, the microsomal CLint at 1 μM came to 110 µL/min/mg in series [1] (setting [4]); 151 µL/min/mg in series [1] (individual substrates, 1 μM); 6.86 µL/min/mg in series [2] (setting [4]); 6.68 µL/min/mg in series [2] (individual substrates, 1 μM). In addition, the half-life at 1 μM in series [1] (setting [4]) was found to be 29.9 min; in series [1] (individual substrates, 1 μM) it was 21.9 min; in series [2] (setting [4]) it was 127 min; in series [2] (individual substrates, 1 μM), 90.4 min.

One may read the Km as the substrate concentration at which the rate is half of its maximum. Broadly, the Vmax is the top rate of the reaction or transport when substrate is in excess. Usually IC50 stands for the concentration needed to halve the response being measured.

The values above are taken from patent US11312713B2, “Imidazo[4,5-C]quinoline derivatives as LRRK2 inhibitors” (Pfizer Inc., priority 2017, dated 2022).
